*1 amine or outer side, *2 acyl side, *3 side chain or, on linkers, in order; H or OH if unused. Where a SMILES comes first, the peptide text is derived from it. Bridges are numbered along the chain shown (N, C = ends). [ ]: non-standard residue; d: D form. Phenylene(1,4-NHCOCH2)2 = O=C(C[*:1])Nc1ccc(NC(=O)C[*:2])cc1
Target: T1, CHIP23-303 recombinant protein (Homo sapiens, UniProt Q9UNE7)
T1 construct: 6xHis (N, cleaved yes); TEV site (N, cleaved yes); made in house; host or cells: E. coli BL21 CodonPlus
T1 sequence (Q9UNE7 23-303): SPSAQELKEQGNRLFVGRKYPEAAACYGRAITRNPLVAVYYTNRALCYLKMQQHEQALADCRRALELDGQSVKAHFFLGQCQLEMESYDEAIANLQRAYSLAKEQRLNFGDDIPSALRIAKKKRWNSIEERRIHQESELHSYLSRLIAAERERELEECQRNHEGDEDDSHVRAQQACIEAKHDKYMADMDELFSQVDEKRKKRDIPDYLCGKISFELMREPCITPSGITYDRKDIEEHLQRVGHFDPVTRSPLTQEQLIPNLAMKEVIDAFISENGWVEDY
Test: Competition fluorescence polarization with CHIP23-303 and HSP70-derived probe 5FAM-bAla-[…]
Assay type: binding
Details: competition FP, 400 nM CHIP23-303, 20 nM probe, 1 hour at room temperature; read-out: Measured KD
Procedure: For the competition FP of CHIP, stapled peptides at 10 mM in DMSO were serially diluted 1:3 in DMSO for a total of 11 concentrations using a Mosquito LV (SPT Labtech), then diluted 1000-fold in buffer (1×HBS-P+, Cytiva) in duplicate by the Mosquito LV (SPT Labtech) into a black polystyrene 384-well plate (Corning) (11-point three-fold peptide dilution series with top concentration=10 μM). The assay was performed with 400 nM CHIP23-303 recombinant protein as target, and 20 nM BCHIP-binding peptide as probe (5FAM-bAla-[…] (SEQ ID NO: 18), derived from HSP70). The plate was incubated and protected from light for 1 hour at room temperature prior to reading. Reads were performed on a CLARIOstar plate reader (BMG Labtech) with excitation at 485 nm, emission at 525 nm, and cutoff at 504 nm. Data were fitted to a 1:1 binding model with Hill slope using an in-house script.
In some embodiments, CHP polypeptide was prepared as follows: CHIP (residues 23-303 for competition FP and 23-154 for crystallography) with an N-terminal 6×His-TEV tag was recombinantly expressed in E. coli BL21 CodonPlus cells (Agilent) from a pET21b-derived expression vector (Novagen) (“6×His” disclosed as SEQ ID NO: 13). The cells were induced at OD600=0.6 with 1 mM IPTG for 4 hours at 37° C., then harvested and resuspended in 50 mM Tris-HCl pH 8.0, 500 mM NaCl, 10 mM imidazole, 10% glycerol, and 10 mM ß-me. For purification, the pellet was lysed with a tip sonicator with power level set at 400 W, 3 seconds on and 3 seconds off for 20 min, pelleted at 22,000×g for 30 minutes at 4° C. The supernatant was purified with Ni-NTA resin (Qiagen), eluting with 250 mM imidazole. Eluted proteins were pooled, concentrated, and TEV-cleaved by adding TEV protease at a ratio of 1:10 protease to protein and incubated overnight at 4° C. TEV-cleaved proteins were loaded onto a Superdex™ 10/300 75 pg (Cytiva) SEC column, and eluted in 50 mM HEPES, pH 8.0, 150 mM NaCl, 10% glycerol, 2 mM DTT. Fractions containing pure protein were collected, pooled, concentrated to 30 mg/mL and stored at −80° C. […]

A Kd of 550 nM was found for `CSCC[C@@H](NC(=O)[C@@H](CCC(=O)O)NC(=O)[C@@H](Cc1c[nH]cn1)NC(=O)[C@H]1CCCN1C(C)=O)C(=O)N[C@@H]1CSCC(=O)Nc2ccc(cc2)NC(=O)CSC[C@H](C(=O)N[C@H](CCCNC(=N)N)C(=O)N[C@H](Cc2ccc(O)cc2)C(=O)N[C@H](CO)C(N)=O)NC(=O)[C@@H](Cc2ccc(O)cc2)NC(=O)[C@@H](C)NC(=O)[C@@H](CC(=O)O)NC(=O)[C@@H](C)NC(=O)[C@@H](Cc2c[nH]c3ccccc23)NC(=O)[C@@H](Cc2ccc(O)cc2)NC1=O` [H203, Ac-phemcywadaycrys-NH2] (Ac-[dP][dH][dE][dM][dC][dY][dW][dA][dD][dA][dY][dC][dR][dY][dS]-NH2; linker 5-12 via Phenylene(1,4-NHCOCH2)2) in this work.
A Kd of 770 nM was found for `CC[C@@H](C)[C@@H](NC(=O)[C@H]1CSCC(=O)Nc2ccc(cc2)NC(=O)CSC[C@@H](NC(=O)[C@@H](CC(C)C)NC(=O)[C@@H](CC(=O)O)NC(=O)[C@@H](CC(C)C)NC(=O)[C@H]2CCCN2C(C)=O)C(=O)N[C@H](Cc2ccc(O)cc2)C(=O)N[C@H](Cc2c[nH]c3ccccc23)C(=O)N[C@H](C)C(=O)N[C@H](CO)C(=O)N[C@H](CC(C)C)C(=O)N[C@H](Cc2c[nH]cn2)C(=O)N1)C(=O)N[C@@H](C(=O)N[C@H](CO)C(N)=O)C(C)C` [H204, Ac-pldlcywaslhcivs-NH2] (Ac-[dP][dL][dD][dL][dC][dY][dW][dA][dS][dL][dH][dC][dI][dV][dS]-NH2; linker 5-12 via Phenylene(1,4-NHCOCH2)2) in this work.
